Consider three molecules from ChEMBL document CHEMBL3244328, “trans-2,3b,4,5,7,8b,9,10-Octahydronaphtho[1,2-c:5,6-c']dipyrazole, a new orally active antiallergic compound” (1978).

Common to all, as to assay type: functional
Test [1] relates to Rattus norvegicus. Put plainly: Antiallergic activity in Sprague-Dawley rat assessed as inhibition of mouse antiserum-induced passive cutaneous anaphylaxis at 25 mg/kg, po administered 1 hr before antiserum challenge measured after 30 mins by Evans blue staining relative to control. The following applies: read-out: INH.
Test [2] relates to Rattus norvegicus. The experiment in a line: Antiallergic activity in Sprague-Dawley rat assessed as inhibition of mouse antiserum-induced passive cutaneous anaphylaxis at 100 mg/kg, po administered 1 hr before antiserum challenge measured after 3 hrs by Evans blue staining relative to control.
Test [3] relates to Rattus norvegicus. Put plainly: Antiallergic activity in Sprague-Dawley rat assessed as inhibition of mouse antiserum-induced passive cutaneous anaphylaxis at 5 to 6 times ED50 mg/kg, po administered 1 hr before antiserum challenge measured after 30 mins by Evans blue staining relative to control.
For test [4], the system named is Rattus norvegicus. Put plainly: Antiallergic activity in Sprague-Dawley rat assessed as inhibition of mouse antiserum-induced passive cutaneous anaphylaxis at 200 mg/kg, po administered 1 hr before antiserum challenge measured after 6 hrs by Evans blue staining relative to control. The following applies: read-out: INH.
The subject of test [5] is Rattus norvegicus. The experiment in a line: Antiallergic activity in po dosed Sprague-Dawley rat assessed as inhibition of mouse antiserum-induced passive cutaneous anaphylaxis administered 1 hr before antiserum challenge measured after 30 mins by Evans blue staining.
The subject of test [6] is Rattus norvegicus. The experiment in a line: Antiallergic activity in Sprague-Dawley rat assessed as inhibition of mouse antiserum-induced passive cutaneous anaphylaxis at 50 mg/kg, po administered 1 hr before antiserum challenge measured after 30 mins by Evans blue staining relative to control. The following applies: read-out: INH.

The structures appear in SMILES notation. Active and inactive are the calls of the source. The calls are words filed in the database; no cut-off is given here.

As usually defined, the ED50 is the dose at which the effect has come halfway, by size or by number of responders. For the molecule `c1[nH]nc2c1CC[C@H]1c3n[nH]cc3CC[C@H]21`, the inhibition in vivo at 25 mg/kg in the test on Rattus norvegicus [1] was determined as 33%. The inhibition in vivo at 100 mg/kg with Rattus norvegicus [2] (read-out: INH) was 65%. Further, the “inhibition (INH)” value with Rattus norvegicus [3] is reported as 60%. For the same molecule, the inhibition in vivo at 200 mg/kg with Rattus norvegicus [4] amounted to 63%. In addition, the ED50 in the test with Rattus norvegicus [5] came out at 35 mg/kg. Moreover, the inhibition in vivo at 50 mg/kg in the test on Rattus norvegicus [6] is 61%.

For the molecule `Cn1cc2c(n1)[C@H]1CCc3cn(C)nc3[C@@H]1CC2`, the inhibition result with Rattus norvegicus [2] was “inactive”.

Take `c1ccc(-n2ncc3c2[C@H]2CCc4cnn(-c5ccccc5)c4[C@@H]2CC3)cc1`: in the test on Rattus norvegicus [2], the inhibition entry was “inactive”.
